Where “and” joins values, the source holds several entries; their conditions need not be identical. Identical values can stand only once.
Legend:
haem = assay: ESI-MS collision-induced dissociation of haem adducts; type: binding; settings: 50 µM haem and 50 µM substrate; for DV50 (dissociation voltage at 50%) of haem adduct: ESI-CID, 20 V to 400 V; for Bottom plateau (adduct remaining at 400 V): fragmentor voltage 400 V
Description: Compound Molar Adduct DV50 Bottom Dissociation mass [Haem+S] (V) plateau Constant
Supplementary Table 7. ESI-MS-CID data (m/z, calculated DV50 = dissociation voltage at 50% and % bottom plateau) of the [haematin-drug]+ adducts and dissociation constants (KD, µM) of the haematin-drug complexes measured with absorption spectrophotometric titrations.
Conditions: 50 µM haem and 50 µM substrate in H2O/CH3CN (5/95) + 0.1% formic acid.
Stability responses of the haem substrate adduct were obtained via ESI-CID experiments.
Positive mode; fragmentor voltage from 20 V to 400 V with 20 V increments. […]
- 41/120 g), and complete dissolution was achieved using an ultrasonic bath. All solutions were protected from daylight to avoid any photochemical degradation. All the physiochemical measurements were carried out at 25.0(2) °C. […]
Electrospray mass spectrometric measurements stopping point
Electrospray mass spectra of the haem complexes were obtained with an Agilent Technologies 6120 quadrupole equipped with an electrospray (ESI) interface. For

[1] = target: haem (FeIIIPPIX, π-π dimer); assay: spectrophotometric titration of haematin π-π dimer; type: binding; settings: absorption spectrophotometric titration, pH 7.5; read-out: Dissociation Constant KD of haematin-drug complex
[2] = test system: adult Schistosoma mansoni; assay: schistosome in vitro culture with inhibitor treatment; type: cell-based; settings: for morphological effects (confocal laser scanning microscopy): 5 μM, 6–13 days; for starting concentration with negative influence on worm physiology: pairing stability, egg production, survival, bright-field microscopy
[3] = test system: Rhizopus arrhizus (syn. R. oryzae) JMRC:SF:05857; assay: spore inhibition test; type: cell-based; settings: 48 h; start concentration 1 mg/ml (1o, 2o), 100 µg/ml (Amphotericin B)
Description: (§1) The following test organisms were used for their susceptibility to compounds 1o and 2o: Alternaria alternata JMRC:SF:09317, Arthroderma benhamiae JMRC:ST:35888, Aspergillus fumigatus JMRC:Afum:00073=ATCC 46645, Aspergillus terreus JMRC:SF:06307, Candida albicans JMRC:ST:35864, Lichtheimia corymbifera JMRC:SF:09682, Penicillium chrysogenum JMRC:SF:10137, Rhizopus arrhizus (syn. R. oryzae) JMRC:SF:05857=ATCC 56536, CBS 112.07.
(§2) Fungi were grown on 3% malt extract solidified medium for 1 to 2 weeks at room temperature. Then the plates were washed with 7 ml sterile distilled water, and the spore suspension was filtered through 4 layers of sterile Miracloth (Kalbiochem, USA) to remove the hyphae. The concentration of the spore suspension was set to 2 × 10^4 conidia ml^−1 for the in vitro assays.
(§3) The spore inhibition assay took place in 96-well microplates (flat base). 50 μl of the prepared spore suspension was seeded and then mixed with 50 μl of the respective inhibitor substance. Tests were started with end concentrations of 1 mg ml^−1 and were then reduced in a minimum of 10 halving steps. Thus a 2 mg ml^−1 stock solution diluted in half ten times with solvent (distilled water, 2% DMSO in distilled water, or 2% DMF in distilled water) and each 50 μl was transferred to 50 μl spore suspension. For each test substance, 12 holes on the microtiter plate were filled. After 24 h incubation (25 °C), the germination of the spores was macroscopically and microscopically examined directly in the microtiter plate via measurement of the optical density and light microscopy using an inverse stereomicroscope with subsequent photodocumentation, respectively. If necessary, the plates were further incubated for another 24 or 48 h, depending on the extent of fungal germination.

[4] = test system: Candida albicans JMRC:ST:35864; assay: spore inhibition test; type: cell-based; settings: 48 h
Description: as §1, §2, §3

[5] = test system: Aspergillus terreus JMRC:SF:06307; assay: spore inhibition test; type: cell-based; settings: 48 h; start concentration 1 mg/ml (1o, 2o), 100 µg/ml (Amphotericin B)
Description: as §1, §2, §3

[6] = test system: Penicillium chrysogenum JMRC:SF:10137; assay: spore inhibition test; type: cell-based; settings: 48 h
Description: as §1, §2, §3

[7] = test system: Aspergillus fumigatus JMRC:Afum:00073; assay: spore inhibition test; type: cell-based; settings: 48 h; start concentration 1 mg/ml (1o, 2o), 100 µg/ml (Amphotericin B)
Description: as §1, §2, §3

[8] = test system: Arthroderma benhamiae JMRC:ST:35888; assay: spore inhibition test; type: cell-based; settings: 72 h
Description: as §1, §2, §3

[9] = test system: Alternaria alternata JMRC:SF:09317; assay: spore inhibition test; type: cell-based; settings: 48 h; start concentration 1 mg/ml (1o, 2o), 100 µg/ml (Amphotericin B)
Description: as §1, §2, §3

[10] = test system: Lichtheimia corymbifera JMRC:SF:09682; assay: spore inhibition test; type: cell-based; settings: 48 h; start concentration 1 mg/ml (1o, 2o), 100 µg/ml (Amphotericin B)
Description: as §1, §2, §3

[11] = start concentration 1 mg/ml (1o, 2o), 100 µg/ml (Amphotericin B)
[12] = start concentration 1 mg/ml, given in mg

Row | Structure (SMILES) | DV50 (dissociation voltage at 50%) of haem adduct (haem) [V] | Bottom plateau (adduct remaining at 400 V) (haem) | Kd [1] [µM] | morphological effects (confocal laser scanning microscopy) [2] | starting concentration with negative influence on worm physiology [2] [μM] | antifungal profile, 1st value = microscopic visualization-based observation, Rhizopus arrhizus [3] | antifungal profile, 2nd value = optical density-based observation, Rhizopus arrhizus [3] | antifungal profile, 2nd value = optical density-based observation, Candida albicans [4, 11] | antifungal profile, 1st value = microscopic visualization-based observation, Aspergillus terreus [5] | antifungal profile, 2nd value = optical density-based observation, Aspergillus terreus [5] | antifungal profile, 2nd value = optical density-based observation, Penicillium chrysogenum [6, 11] | antifungal profile, 1st value = microscopic visualization-based observation, Aspergillus fumigatus [7] | antifungal profile, 2nd value = optical density-based observation, Aspergillus fumigatus [7] | antifungal profile, 1st value = microscopic visualization-based observation, Arthroderma benhamiae [8, 11] | antifungal profile, 1st value = microscopic visualization-based observation, Alternaria alternata [9] | antifungal profile, 2nd value = optical density-based observation, Alternaria alternata [9] | antifungal profile, 1st value = microscopic visualization-based observation, Lichtheimia corymbifera [10] | antifungal profile, 2nd value = optical density-based observation, Lichtheimia corymbifera [10] | also measured
1 | COc1ccc2c(c1)CCC1C2CC[C@@]2(C)C1CC[C@H]2NCc1cc2ccccc2cc1O (some centres unmarked) [1o] | 290 | ~ 20% and 20% | 3.3 | swellings and invaginations occurred at the tegument | 5 | 500 | 500 | 500 | 250 | 125 | 125 | 250 | 250 | 500 | 500 | 250 | 500 | 62.5 | reduction of egg production and motility ([2]; 10 µM, starting from days 1 and 2): about 75%; effect on survival ([2]; 20 µM, from day 2 on): nearly all worms were dead; antifungal profile, 1st value = microscopic visualization-based observation, Candida albicans [4, 12]: 1 mg; antifungal profile, 1st value = microscopic visualization-based observation, Penicillium chrysogenum [6, 12]: 1 mg; antifungal profile, 2nd value = optical density-based observation, Arthroderma benhamiae [8, 12]: 1 mg
2 | COc1ccc2c(c1)CCC1C2CC[C@@]2(C)C1CC[C@@H]2NCc1cc2ccccc2cc1O (some centres unmarked) [2o] | 280 | 21.7% and ~ 20% | 8.3 | the diameter of the testicular lobes was reduced, the ovary was disorganized | 1 | 500 | 500 | 250 | 250 | 4 | 125 | 250 | 125 | 31.2 | 125 | 15,6 | 62.5 | 7.8 | effect on survival ([2]; 10 µM): caused the death of the parasites within a week; time to death of worms ([2]; 10 µM): ≤ 3 days; time to death of worms ([2]; 20 µM): 1 days; antifungal profile, 1st value = microscopic visualization-based observation, Candida albicans [4, 11]: 500; antifungal profile, 1st value = microscopic visualization-based observation, Penicillium chrysogenum [6, 11]: 250; antifungal profile, 2nd value = optical density-based observation, Arthroderma benhamiae [8, 11]: 2

From PMC5321741, “Arylmethylamino steroids as antiparasitic agents” (Nature Communications, 2017)
